Measured values: US8969325B2, “TRPV1 antagonists” (AbbVie Inc., priority 2011, dated 2015)

Columns and labels:
human TRPV1 [1] = target: T1, human TRPV1 (Homo sapiens (Human), UniProt Q8NER1); experiment: Capsaicin Activation Assay (intracellular Ca2+, FLIPR); format: cell-based; conditions: recombinant HEK293 cells expressing hTRPV1, 50 nM capsaicin
Summary of the method: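 Ca2+ fluorescence was recorded by FLIPR every 1 to 5 seconds in HEK293 cells, clonally selected for stable human TRPV1 expression and plated one day ahead. Test compounds came as serial dilutions of 10 mM DMSO stocks.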

human TRPV1 [2] = target: T1, human TRPV1; experiment: Acid Activation Assay (pH 5.0, intracellular Ca2+, FLIPR); format: cell-based; conditions: percentage of the maximal pH 5.0-induced response remaining; recombinant HEK293 hTRPV1 cells; maximum concentration tested 37.5 μM
Summary of the method: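 Readout: peak [Ca2+]i fluorescence over baseline on FLIPR, expressed as percentage remaining of the maximal pH 5.0-evoked signal. Stable hTRPV1-HEK293 cells with Calcium-4 dye received compound (12 half-log concentrations, maximum 37.5 μM) 3 min before acidic pH 5.0 buffer.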

T1 sequence (Q8NER1 whole entry): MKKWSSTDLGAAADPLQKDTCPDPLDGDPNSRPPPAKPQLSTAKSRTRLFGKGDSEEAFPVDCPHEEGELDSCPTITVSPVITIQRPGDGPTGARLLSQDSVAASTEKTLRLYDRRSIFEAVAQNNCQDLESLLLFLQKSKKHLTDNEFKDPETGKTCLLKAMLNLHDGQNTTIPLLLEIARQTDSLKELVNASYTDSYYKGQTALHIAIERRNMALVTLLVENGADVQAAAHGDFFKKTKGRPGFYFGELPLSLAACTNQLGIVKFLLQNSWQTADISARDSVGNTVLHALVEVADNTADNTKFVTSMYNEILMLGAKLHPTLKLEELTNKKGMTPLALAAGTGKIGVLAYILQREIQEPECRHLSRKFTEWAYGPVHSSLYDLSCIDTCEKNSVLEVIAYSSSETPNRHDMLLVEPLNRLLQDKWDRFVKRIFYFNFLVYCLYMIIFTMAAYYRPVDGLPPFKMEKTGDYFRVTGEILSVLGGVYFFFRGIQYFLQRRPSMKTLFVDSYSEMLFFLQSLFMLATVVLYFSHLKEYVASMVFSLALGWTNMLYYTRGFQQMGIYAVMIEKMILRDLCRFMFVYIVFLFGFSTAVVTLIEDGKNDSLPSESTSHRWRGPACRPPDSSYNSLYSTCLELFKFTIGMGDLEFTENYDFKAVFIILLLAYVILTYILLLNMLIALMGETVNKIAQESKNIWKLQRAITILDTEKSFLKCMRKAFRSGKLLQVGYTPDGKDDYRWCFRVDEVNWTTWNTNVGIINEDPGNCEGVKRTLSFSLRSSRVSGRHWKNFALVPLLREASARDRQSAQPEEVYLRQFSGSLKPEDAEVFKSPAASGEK

SMILES | IC50 (human TRPV1 [1]) | human TRPV1 H^+ (max % remain) (human TRPV1 [2])
CN1Cc2ccc(NC(=O)N[C@@H]3CC(CF)(CF)Oc4ccc(F)cc43)cc2NC1=O [Example 186, 1-[(4R)-6-fluoro-2,2-bis(fluoromethyl)-3,4-dihydro-2H-chromen-4-yl]-3-(3-methyl-2-oxo-1,2,3,4-tetrahydroquinazolin-7-yl)urea] | 1500 nM | 58%
CN1Cc2ccc(NC(=O)N[C@@H]3CC(CF)(CF)Oc4c(F)cc(F)cc43)cc2NC1=O [Example 187, 1-[(4R)-6,8-difluoro-2,2-bis(fluoromethyl)-3,4-dihydro-2H-chromen-4-yl]-3-(3-methyl-2-oxo-1,2,3,4-tetrahydroquinazolin-7-yl)urea] | 760 nM | 50%
CN1Cc2ccc(NC(=O)N[C@@H]3CC4(CCC4)Oc4ccc(F)cc43)cc2NC1=O [Example 188, 1-[(4R)-6-fluoro-3,4-dihydrospiro[chromene-2,1′-cyclobutan]-4-yl]-3-(3-methyl-2-oxo-1,2,3,4-tetrahydroquinazolin-7-yl)urea] | 290 nM | 46%
CCC1(CC)C[C@@H](NC(=O)Nc2ccc3c(c2)NC(=O)N(C)C3)c2cc(F)ccc2O1 [Example 189, 1-[(4R)-2,2-diethyl-6-fluoro-3,4-dihydro-2H-chromen-4-yl]-3-(3-methyl-2-oxo-1,2,3,4-tetrahydroquinazolin-7-yl)urea] | 200 nM | 40%
CCCC1(CCC)C[C@@H](NC(=O)Nc2ccc3c(c2)NC(=O)N(C)C3)c2cccc(F)c2O1 [Example 190, 1-[(4R)-8-fluoro-2,2-dipropyl-3,4-dihydro-2H-chromen-4-yl]-3-(3-methyl-2-oxo-1,2,3,4-tetrahydroquinazolin-7-yl)urea] | 450 nM | 79%
CCC1(CC)C[C@@H](NC(=O)Nc2ccc3c(c2)NC(=O)N(C)C3)c2ccc(OC(F)(F)F)cc2O1 [Example 191, 1-[(4R)-2,2-diethyl-7-(trifluoromethoxy)-3,4-dihydro-2H-chromen-4-yl]-3-(3-methyl-2-oxo-1,2,3,4-tetrahydroquinazolin-7-yl)urea] | 450 nM | 19%
CN1Cc2ccc(NC(=O)N[C@@H]3CC(CF)(CF)Oc4c3ccc(Cl)c4F)cc2NC1=O [Example 192, 1-[(4R)-7-chloro-8-fluoro-2,2-bis(fluoromethyl)-3,4-dihydro-2H-chromen-4-yl]-3-(3-methyl-2-oxo-1,2,3,4-tetrahydroquinazolin-7-yl)urea] | 280 nM | 53%
CN1Cc2ccc(NC(=O)N[C@@H]3CC(C)(C)Oc4ccccc43)cc2NC1=O [Example 193, 1-[(4R)-2,2-dimethyl-3,4-dihydro-2H-chromen-4-yl]-3-(3-methyl-2-oxo-1,2,3,4-tetrahydroquinazolin-7-yl)urea] | 270 nM | 56%
CN1Cc2ccc(NC(=O)N[C@H]3CCOc4cc(OC(F)(F)F)ccc43)cc2NC1=O [Example 194, 1-(3-methyl-2-oxo-1,2,3,4-tetrahydroquinazolin-7-yl)-3-[(4S)-7-(trifluoromethoxy)-3,4-dihydro-2H-chromen-4-yl]urea] | 1800 nM | 52%
CN1Cc2ccc(NC(=O)N[C@@H]3CCOc4cc(OC(F)(F)F)ccc43)cc2NC1=O [Example 195, 1-(3-methyl-2-oxo-1,2,3,4-tetrahydroquinazolin-7-yl)-3-[(4R)-7-(trifluoromethoxy)-3,4-dihydro-2H-chromen-4-yl]urea] | 280 nM | 49%
COCC1(COC)C[C@@H](NC(=O)Nc2ccc3c(c2)NC(=O)N(C)C3)c2cc(F)ccc2O1 [Example 196, 1-[(4R)-6-fluoro-2,2-bis(methoxymethyl)-3,4-dihydro-2H-chromen-4-yl]-3-(3-methyl-2-oxo-1,2,3,4-tetrahydroquinazolin-7-yl)urea] | 2700 nM | 53%
CN1Cc2ccc(NC(=O)N[C@@H]3CC(CF)(CF)Oc4ccccc43)cc2NC1=O [Example 197, 1-[(4R)-2,2-bis(fluoromethyl)-3,4-dihydro-2H-chromen-4-yl]-3-(3-methyl-2-oxo-1,2,3,4-tetrahydroquinazolin-7-yl)urea] | 1100 nM | 57%
CN1Cc2ccc(NC(=O)N[C@@H]3CC(CF)(CF)Oc4c(F)cccc43)cc2NC1=O [Example 198, 1-[(4R)-8-fluoro-2,2-bis(fluoromethyl)-3,4-dihydro-2H-chromen-4-yl]-3-(3-methyl-2-oxo-1,2,3,4-tetrahydroquinazolin-7-yl)urea] | 350 nM | 55%
CN1Cc2ccc(NC(=O)N[C@@H]3CCOc4ccc(F)cc43)cc2NC1=O [Example 199, 1-[(4R)-6-fluoro-3,4-dihydro-2H-chromen-4-yl]-3-(3-methyl-2-oxo-1,2,3,4-tetrahydroquinazolin-7-yl)urea] | 6700 nM | 58%
CN1Cc2ccc(NC(=O)N[C@@H]3CCOc4c3cccc4C(F)(F)F)cc2NC1=O [Example 200, 1-(3-methyl-2-oxo-1,2,3,4-tetrahydroquinazolin-7-yl)-3-[(4R)-8-(trifluoromethyl)-3,4-dihydro-2H-chromen-4-yl]urea] | 90 nM | 21%
CN1Cc2ccc(NC(=O)N[C@@H]3CCOc4cc(C(F)(F)F)ccc43)cc2NC1=O [Example 201, 1-(3-methyl-2-oxo-1,2,3,4-tetrahydroquinazolin-7-yl)-3-[(4R)-7-(trifluoromethyl)-3,4-dihydro-2H-chromen-4-yl]urea] | 130 nM | 45%
CN1Cc2ccc(NC(=O)N[C@@H]3CCc4cc(F)ccc43)cc2NC1=O [Example 202, 1-[(1R)-5-fluoro-2,3-dihydro-1H-inden-1-yl]-3-(3-methyl-2-oxo-1,2,3,4-tetrahydroquinazolin-7-yl)urea] | 220 nM | 50%
CN1Cc2ccc(NC(=O)N[C@H]3CC4(CCC4)Oc4ccc(F)cc43)cc2NC1=O [Example 203, 1-[(4S)-6-fluoro-3,4-dihydrospiro[chromene-2,1′-cyclobutan]-4-yl]-3-(3-methyl-2-oxo-1,2,3,4-tetrahydroquinazolin-7-yl)urea] | 28000 nM | 64%
CN1Cc2ccc(NC(=O)N[C@H]3CC(C)(C)Oc4ccc(F)cc43)cc2NC1=O [Example 204, 1-[(4S)-6-fluoro-2,2-dimethyl-3,4-dihydro-2H-chromen-4-yl]-3-(3-methyl-2-oxo-1,2,3,4-tetrahydroquinazolin-7-yl)urea] | 1600 nM | 55%
CN1Cc2ccc(NC(=O)N[C@@H]3CC4(CCCC4)Oc4ccccc43)cc2NC1=O [Example 205, 1-[(4R)-3,4-dihydrospiro[chromene-2,1′-cyclopentan]-4-yl]-3-(3-methyl-2-oxo-1,2,3,4-tetrahydroquinazolin-7-yl)urea] | 400 nM | 56%
CN1Cc2ccc(NC(=O)N[C@@H]3C[C@](C)(CF)Oc4cc(C(F)(F)F)ccc43)cc2NC1=O [Example 206, 1-[(2R,4R)-2-(fluoromethyl)-2-methyl-7-(trifluoromethyl)-3,4-dihydro-2H-chromen-4-yl]-3-(3-methyl-2-oxo-1,2,3,4-tetrahydroquinazolin-7-yl)urea] | 240 nM | 43%
CN1Cc2ccc(NC(=O)N[C@@H]3C[C@](C)(C(F)F)Oc4ccccc43)cc2NC1=O [Example 207, 1-[(2R,4R)-2-(difluoromethyl)-2-methyl-3,4-dihydro-2H-chromen-4-yl]-3-(3-methyl-2-oxo-1,2,3,4-tetrahydroquinazolin-7-yl)urea] | 330 nM | 57%
CN1Cc2ccc(NC(=O)N[C@@H]3CC(C)(C)Oc4nc(C(F)(F)F)ccc43)cc2NC1=O [Example 208, 1-[(4R)-2,2-dimethyl-7-(trifluoromethyl)-3,4-dihydro-2H-pyrano[2,3-b]pyridin-4-yl]-3-(3-methyl-2-oxo-1,2,3,4-tetrahydroquinazolin-7-yl)urea] | 1300 nM | 55%
CN1Cc2ccc(NC(=O)N[C@@H]3CC(CF)(CF)Oc4cc(F)ccc43)cc2NC1=O [Example 209, 1-[(4R)-7-fluoro-2,2-bis(fluoromethyl)-3,4-dihydro-2H-chromen-4-yl]-3-(3-methyl-2-oxo-1,2,3,4-tetrahydroquinazolin-7-yl)urea] | 290 nM | 57%
O=C1CCc2ccc(NC(=O)N[C@@H]3CC(CF)(CF)Oc4cc(OC(F)(F)F)ccc43)cc2N1 [Example 211, 1-[(4R)-2,2-bis(fluoromethyl)-7-(trifluoromethoxy)-3,4-dihydro-2H-chromen-4-yl]-3-(2-oxo-1,2,3,4-tetrahydroquinolin-7-yl)urea] | 20 nM | 55%
C[C@@]1(C(F)F)C[C@@H](NC(=O)Nc2ccc3c(c2)NC(=O)CC3)c2ccc(Cl)cc2O1 [Example 212, 1-[(2S,4R)-7-chloro-2-(difluoromethyl)-2-methyl-3,4-dihydro-2H-chromen-4-yl]-3-(2-oxo-1,2,3,4-tetrahydroquinolin-7-yl)urea] | 61 nM | 34%
O=C1CCc2ccc(NC(=O)N[C@@H]3CC(CF)(CF)Oc4ccc(F)cc43)cc2N1 [Example 213, 1-[(4R)-6-fluoro-2,2-bis(fluoromethyl)-3,4-dihydro-2H-chromen-4-yl]-3-(2-oxo-1,2,3,4-tetrahydroquinolin-7-yl)urea] | 170 nM | 42%
